Source: patent US20260297042A1, “BIARYLAMIDE DERIVATIVES AND THEIR USE AS PKMYT1 INHIBITORS” (CANCER RESEARCH TECHNOLOGY LIMITED, priority 2023, published 2026)

Legend:
WEE1 = target: T1, WEE1 (Homo sapiens, UniProt P30291); experiment: Selectivity versus WEE1 assay (ADP-Glo enzymatic assay); format: biochemical; conditions: for IC50: ADP-Glo; for PKMYT1 vs. WEE1 selectivity: fold difference in selectivity for PKMYT1 over WEE1
T1 construct: purchased Thermo Fisher PR7373A
Procedure, shortened: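 Same format as the PKMYT1 assay: WEE1 at 15 nM final with 30 µM ATP, 60 min at 26° C, ADP-Glo luminescence detection, IC50 by dose-response fitting.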

[1] = test system: h-TERT-RPE1 TP53−/− CCNE1 high expressing clone cell line 7 (CL7); experiment: Nuclear count cell proliferation assay, CCNE1 high expressing clone cell line 7 (CL7) of h-TERT-RPE1 TP53−/−; format: cell-based; conditions: banded; for Selectivity Ratio Wt vs. CL7: GI50 ratio RPE Wt vs. CL7, >N = at least in this band; for GI50: hTERT-RPE1, h-TERT-RPE1 TP53−/− CCNE1 high clone CL7, nuclear count, around 6 population doublings, read-out: RPE CL7 GI50
Method: (§1) h-TERT-RPE1 TP53−/− and CCNE1 high expressing clones (clone cell lines 7 and 15) were treated with test compounds dissolved in DMSO at serially diluted concentrations alongside a DMSO only control for around 6 population doublings time. Cells were then fixed with 4% Paraformaldehyde and the cell nuclei were stained with DAPI (Sigma D9542). Images covering each well were acquired by an Opera Phenix® High-Content Screening System (PerkinElmer). Image analysis was performed using Harmony® high-content analysis software (PerkinElmer). Data analysis was performed using Microsoft Excel® and GI50 estimates generated with GraphPad Prism v9. Percent nuclear count was compared to vehicle control wells and used to measure inhibition of proliferation.

[2] = test system: h-TERT-RPE1 TP53−/− parental cells; experiment: Nuclear count cell proliferation assay, parental (wild type) h-TERT-RPE1 TP53−/− cells; format: cell-based; conditions: hTERT-RPE1, h-TERT-RPE1 TP53−/− parental (Wt), around 6 population doublings, banded, read-out: RPE Wt GI50
Method: as §1

Human PKMYT1 = target: T2, Human PKMYT1 (Homo sapiens, UniProt Q99640); experiment: PKMYT1 biochemical ADP-Glo enzymatic assay; conditions: ADP-Glo
T2 construct: Human PKMYT1 75-362 was cloned as a TEV cleavable 6xHis fusion; 6xHis (TEV cleavable) (cleaved yes); made in house; host or cells: bacterial cells
T2 sequence (Q99640 75-362): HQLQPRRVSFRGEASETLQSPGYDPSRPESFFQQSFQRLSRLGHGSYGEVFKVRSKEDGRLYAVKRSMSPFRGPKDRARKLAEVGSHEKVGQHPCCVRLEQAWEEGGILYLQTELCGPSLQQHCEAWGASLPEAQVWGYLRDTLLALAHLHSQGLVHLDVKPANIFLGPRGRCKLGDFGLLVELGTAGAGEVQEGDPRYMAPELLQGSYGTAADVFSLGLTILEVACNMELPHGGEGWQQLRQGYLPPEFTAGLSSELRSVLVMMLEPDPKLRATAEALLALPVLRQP
Procedure, shortened: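 Measures inhibition of PKMYT1 autonomous ATP hydrolysis: bacterially expressed human enzyme (75-362, tag cleaved) at 15 nM with 500 µM ATP for 60 min at 26 °C, then ADP-Glo Max detection. IC50s accepted only when replicates agreed within 3-fold and curve r2 exceeded 0.9.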

[3] = target: T3, Cellular PKMYT1 Biomarker CDK1 pT14 (Homo sapiens, UniProt Q99640); experiment: Inhibition of cellular PKMYT1 biomarker CDK1 pT14 in OVCAR 3 cells (immunoblot); format: cell-based; conditions: 20 hours incubation
T3 construct: read-out CDK1 phospho-T14 immunoblot
T3 sequence (Q99640 1-499): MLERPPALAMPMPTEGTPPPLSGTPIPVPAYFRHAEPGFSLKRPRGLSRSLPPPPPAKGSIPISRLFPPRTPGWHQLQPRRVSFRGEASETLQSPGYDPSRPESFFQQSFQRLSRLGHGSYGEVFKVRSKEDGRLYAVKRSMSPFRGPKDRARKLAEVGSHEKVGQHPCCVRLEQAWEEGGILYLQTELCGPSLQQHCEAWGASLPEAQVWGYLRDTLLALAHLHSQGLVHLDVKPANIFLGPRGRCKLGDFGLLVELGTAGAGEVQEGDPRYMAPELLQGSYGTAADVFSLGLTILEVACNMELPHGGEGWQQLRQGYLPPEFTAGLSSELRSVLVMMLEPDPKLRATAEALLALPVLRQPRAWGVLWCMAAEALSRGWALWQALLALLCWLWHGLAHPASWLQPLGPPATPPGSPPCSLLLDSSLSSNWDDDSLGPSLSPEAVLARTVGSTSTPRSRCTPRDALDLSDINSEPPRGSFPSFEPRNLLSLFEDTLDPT
Procedure, shortened: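 Confluent OVCAR 3 cells treated with a compound concentration range for 20 h at 37 °C. Lysates analysed by automated capillary immunoblot for CDK1 phospho-T14, with vinculin, fluorescence detection; IC50 by regression.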

KYSE-30 cells = experiment: Cancer cell line proliferation assay, ATP-based cell viability (Cell Titre Glow), KYSE-30 (normal CCNE1); conditions: Homo sapiens, KYSE-30 cells (normal CCNE1), concentration that achieves 50% cell growth proliferation inhibition, read-out: KYSE30 Gl50
Procedure, shortened: (§2)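 GI50 reflects half-maximal growth inhibition by PKMYT1 inhibitors, derived by curve fitting of CellTiter-Glo luminescence signals.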

OVCAR 3 cells = experiment: Cancer cell line proliferation assay, ATP-based cell viability (Cell Titre Glow), OVCAR 3 (CCNE1-amplified); conditions: KYSE30 (normal CCNE1) GI50 vs. OVCAR 3 (CCNE1-amplified) GI50
Procedure, shortened: as §2

[4] = 15 nM WEE1, 60 minutes at 26° C., banded
[5] = banded, ">N" = at least in this band but could be higher
[6] = 15 nM PKMYT1 kinase domain, 500 µM ATP, 60 minutes at 26° C., banded
[7] = PKMYT1 kinase domain 15 nM, banded values

T1 sequence (P30291 whole entry): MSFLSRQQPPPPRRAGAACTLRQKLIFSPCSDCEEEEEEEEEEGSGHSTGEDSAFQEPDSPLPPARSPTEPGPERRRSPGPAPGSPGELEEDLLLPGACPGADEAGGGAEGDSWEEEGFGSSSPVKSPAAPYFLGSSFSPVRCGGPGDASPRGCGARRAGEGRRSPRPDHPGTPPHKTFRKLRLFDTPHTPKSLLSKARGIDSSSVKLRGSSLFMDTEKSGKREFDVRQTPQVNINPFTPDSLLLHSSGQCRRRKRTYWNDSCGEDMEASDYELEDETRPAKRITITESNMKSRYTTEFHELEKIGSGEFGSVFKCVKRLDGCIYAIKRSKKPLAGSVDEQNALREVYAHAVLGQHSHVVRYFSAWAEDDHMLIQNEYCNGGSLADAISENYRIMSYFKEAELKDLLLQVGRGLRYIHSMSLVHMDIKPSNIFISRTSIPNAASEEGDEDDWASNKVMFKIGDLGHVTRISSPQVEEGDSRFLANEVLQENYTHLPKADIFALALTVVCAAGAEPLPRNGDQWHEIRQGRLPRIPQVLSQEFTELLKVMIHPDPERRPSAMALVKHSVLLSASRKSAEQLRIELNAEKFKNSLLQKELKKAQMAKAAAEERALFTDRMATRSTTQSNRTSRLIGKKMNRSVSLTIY

Cc1ccc(O)c(C)c1NC(=O)c1cnc(Nc2ccn(CC(=O)N3CCC(C)(C)CC3)n2)s1 [BAA-137]
IC50 (WEE1; [4]): > 11000 nM | PKMYT1 vs. WEE1 selectivity (WEE1; [5]): Y (1000-5000 fold) | Selectivity Ratio Wt vs. CL7 [1]: X (3-<10 fold) | GI50 [1]: 500 to 3000 nM | GI50 [2]: 500 to 3000 nM | IC50 (Human PKMYT1; [6]): < 50 nM

Cc1ccc(O)c(C)c1NC(=O)c1cnc(Nc2ccn(CC(=O)N3CCNC(C)(C)C3)n2)s1 [BAA-229, 2-((1-(2-(3,3-dimethylpiperazin-1-yl)-2-oxoethyl)-1H-pyrazol-3-yl)amino)-N-(3-hydroxy-2,6-dimethylphenyl)thiazole-5-carboxamide]
IC50 (WEE1; [4]): > 11000 nM | PKMYT1 vs. WEE1 selectivity (WEE1; [5]): Y (1000-5000 fold) | Selectivity Ratio Wt vs. CL7 [1]: X (3-<10 fold) | GI50 [1]: 3000 to 10000 nM | GI50 [2]: > 10000 nM | IC50 (Human PKMYT1; [6]): < 50 nM

Cc1cn(C(C)C(=O)N2CCCC2)nc1Nc1ncc(C(=O)Nc2c(C)ccc(O)c2C)s1 (stereo not drawn) [BAA-488, N-(3-hydroxy-2,6-dimethylphenyl)-2-((4-methyl-1-(1-oxo-1-(pyrrolidin-1-yl)propan-2-yl)-1H-pyrazol-3-yl)amino)thiazole-5-carboxamide]
IC50 [3]: < 100 nM | IC50 (WEE1; WEE1 15 nM, banded values): 1000 to 11000 nM | PKMYT1 vs. WEE1 selectivity (WEE1; banded): X (100-<1000 fold) | GI50 (KYSE-30 cells): > 5000 nM | Selectivity ratio KYSE30 Gl50 vs. OVCAR3 Gl50 (OVCAR 3 cells): Y (>20 fold) | IC50 (Human PKMYT1; [7]): < 50 nM

Cc1cc(Nc2ncc(C(=O)Nc3c(C)ccc(O)c3C)s2)nc(OCC(F)(F)F)n1 [BAA-319, N-(3-hydroxy-2,6-dimethylphenyl)-2-((6-methyl-2-(2,2,2-trifluoroethoxy)pyrimidin-4-yl)amino)thiazole-5-carboxamide]
IC50 [3]: < 100 nM | IC50 (WEE1; [4]): > 11000 nM | PKMYT1 vs. WEE1 selectivity (WEE1; [5]): Y (1000-5000 fold) | GI50 (KYSE-30 cells): 500 to 5000 nM | Selectivity ratio KYSE30 Gl50 vs. OVCAR3 Gl50 (OVCAR 3 cells): Y (>20 fold) | IC50 (Human PKMYT1; [6]): < 50 nM

COC[C@H]1CCCN1C(=O)Cn1cc(C)c(Nc2ncc(C(=O)Nc3c(C)ccc(O)c3C)s2)n1 [BAA-599, N-(3-Hydroxy-2,6-dimethyl-phenyl)-2-[[1-[2-[(2R)-2-(methoxymethyl)pyrrolidin-1-yl]-2-oxo-ethyl]-4-methyl-pyrazol-3-yl]amino]thiazole-5-carboxamide]
IC50 [3]: 100 to 1000 nM | IC50 (WEE1; WEE1 15 nM, banded values): 1000 to 11000 nM | PKMYT1 vs. WEE1 selectivity (WEE1; banded): X (100-<1000 fold) | GI50 (KYSE-30 cells): > 5000 nM | Selectivity ratio KYSE30 Gl50 vs. OVCAR3 Gl50 (OVCAR 3 cells): Y (>20 fold) | IC50 (Human PKMYT1; [7]): < 50 nM

Cc1ccc(O)c(C)c1NC(=O)c1cnc(Nc2ncnc3[nH]ccc23)s1 [BAA-441, 2-((7H-pyrrolo[2,3-d]pyrimidin-4-yl)amino)-N-(3-hydroxy-2,6-dimethylphenyl)thiazole-5-carboxamide]
IC50 [3]: < 100 nM | IC50 (WEE1; WEE1 15 nM, banded values): 1000 to 11000 nM | PKMYT1 vs. WEE1 selectivity (WEE1; banded): W (10-<100 fold) | GI50 (KYSE-30 cells): > 5000 nM | Selectivity ratio KYSE30 Gl50 vs. OVCAR3 Gl50 (OVCAR 3 cells): Y (>20 fold) | IC50 (Human PKMYT1; [7]): < 50 nM

Cc1cn(CCF)nc1Nc1ncc(C(=O)Nc2c(C)ccc(O)c2Br)s1 [BAA-565, N-(2-bromo-3-hydroxy-6-methylphenyl)-2-((1-(2-fluoroethyl)-4-methyl-1H-pyrazol-3-yl)amino) thiazole-5-carboxamide]
IC50 [3]: < 100 nM | IC50 (WEE1; WEE1 15 nM, banded values): 1000 to 11000 nM | PKMYT1 vs. WEE1 selectivity (WEE1; banded): X (100-<1000 fold) | GI50 (KYSE-30 cells): > 5000 nM | Selectivity ratio KYSE30 Gl50 vs. OVCAR3 Gl50 (OVCAR 3 cells): Y (>20 fold) | IC50 (Human PKMYT1; [7]): < 50 nM

Cc1ccc(NC(=O)c2ccc(C(F)(F)F)cc2)nc1Nc1ncc(C(=O)Nc2c(C)ccc(O)c2C)s1 [BAA-328, N-(3-Hydroxy-2,6-dimethylphenyl)-2-((3-methyl-6-(4-(trifluoromethyl)benzamido)pyridin-2-yl)amino)thiazole-5-carboxamide]
IC50 [3]: < 100 nM | IC50 (WEE1; [4]): > 11000 nM | PKMYT1 vs. WEE1 selectivity (WEE1; [5]): X (100-<1000 fold) | GI50 (KYSE-30 cells): > 5000 nM | Selectivity ratio KYSE30 Gl50 vs. OVCAR3 Gl50 (OVCAR 3 cells): Y (>20 fold) | IC50 (Human PKMYT1; [6]): 50 to 1000 nM

Cc1ccc(O)c(C)c1NC(=O)c1cnc(Nc2cc(C(F)(F)F)cc(Cl)n2)s1 [BAA-321, 2-((6-chloro-4-(trifluoromethyl)pyridin-2-yl)amino)-N-(3-hydroxy-2,6-dimethylphenyl)thiazole-5-carboxamide]
IC50 [3]: 100 to 1000 nM | IC50 (WEE1; [4]): > 11000 nM | PKMYT1 vs. WEE1 selectivity (WEE1; [5]): X (100-<1000 fold) | GI50 (KYSE-30 cells): > 5000 nM | Selectivity ratio KYSE30 Gl50 vs. OVCAR3 Gl50 (OVCAR 3 cells): Y (>20 fold) | IC50 (Human PKMYT1; [6]): 50 to 1000 nM

Cc1cn(C(CO)C(=O)N(C)C2CC2)nc1Nc1ncc(C(=O)Nc2c(C)ccc(O)c2C)s1 (stereo not drawn) [BAA-591, 2-((1-(1-(cyclopropyl(methyl)amino)-3-hydroxy-1-oxopropan-2-yl)-4-methyl-1H-pyrazol-3-yl)amino)-N-(3-hydroxy-2,6-dimethylphenyl)thiazole-5-carboxamide]
IC50 [3]: < 100 nM | IC50 (WEE1; WEE1 15 nM, banded values): 1000 to 11000 nM | PKMYT1 vs. WEE1 selectivity (WEE1; banded): X (100-<1000 fold) | GI50 (KYSE-30 cells): > 5000 nM | Selectivity ratio KYSE30 Gl50 vs. OVCAR3 Gl50 (OVCAR 3 cells): Y (>20 fold) | IC50 (Human PKMYT1; [7]): < 50 nM

Cc1cn(-c2cnn(C)c2)nc1Nc1ncc(C(=O)Nc2c(C)ccc(O)c2C)s1 [BAA-385, 2-((1′′,4-dimethyl-1′H-[1,4′-bipyrazol]-3-yl)amino)-N-(3-hydroxy-2,6-dimethylphenyl)thiazole-5-carboxamide]
IC50 [3]: < 100 nM | IC50 (WEE1; [4]): 1000 to 11000 nM | PKMYT1 vs. WEE1 selectivity (WEE1; [5]): X (100-<1000 fold) | GI50 (KYSE-30 cells): 500 to 5000 nM | Selectivity ratio KYSE30 Gl50 vs. OVCAR3 Gl50 (OVCAR 3 cells): Y (>20 fold) | IC50 (Human PKMYT1; [6]): < 50 nM
